Common to all, as to type: cell-based
One experiment deals with MDA-MB-231 cells. Nature of the experiment: MDA-MB-231 cell proliferation assay (Cell-Titer-Glo, 120 hr). Particulars: for EC50: Homo sapiens, MDA-MB-231, 120 h, read-out: MDA-MB 231 Cell Prolif. 120 hr EC50; for MDA-MB 231 Cell Prolif. 120 hr YMin (%): minimal percent of DMSO control observed. Put shortly: (§1)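 Growth inhibition was read as CellTiter-Glo luminescence after 120 h at 37 °C in RPMI/10% FBS, with 400 MKN45 or 800 MDA-MB-231 cells seeded per well. Compounds were tested in 10-point half-log series starting at 1 or 10 uM (0.1% DMSO), in triplicate for MKN45 and duplicate for MDA-MB-231. EC50 values are four-parameter fits to %DMSO control, and Ymin-obs is the minimal observed %DMSO.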

For the next experiment, the system named is MKN45 cells. Nature of the experiment: MKN45 cell proliferation assay (Cell-Titer-Glo, 120 hr). The note with it: for EC50: Homo sapiens, MKN-45, 120 h, read-out: MKN45 Cell Prolif. 120 hr EC50; for MKN45 Cell Prolif. 120 hr YMin (%): minimal percent of DMSO control observed. Put shortly: as §1
The target in another experiment is T1, WEE1 (Homo sapiens, UniProt P30291+Q96SW2).
T1 construct: C-terminal ePL-tagged (DiscoverX, Fremont, CA) full-length WEE1 expression construct; expressed in transfected cells; host or cells: LentiX-HEK293T (Invitrogen), lentivirally transduced; the cells also over-express GSPT1-GN
Nature of the experiment: WEE1-ePL degradation assay (293T-LentiX, InCELL Hunter luminescence, 4 hr). The note with it: for DC50: LentiX-HEK293T cells expressing WEE1-ePL, 4 hr incubation, read-out: 293T-LentiX WEE1-ePL Degradation 4 hr EC50; for 293T-LentiX WEE1-ePL Degradation 4 hr YMin (%): lower limit of fit, % of DMSO control signal remaining. Put shortly: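 EC50 comes from a four-parameter logistic fit of ePL luminescence (InCELL Hunter), with DMSO control defining Ymax. Compounds ran as 10-point 3-fold dilutions from 1 or 10 µM for 4 h at 37 °C. Cells were HEK293T-LentiX with ePL-tagged full-length WEE1 and over-expressed Cereblon-resistant GSPT1-GN.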

T1 sequence (P30291 whole entry): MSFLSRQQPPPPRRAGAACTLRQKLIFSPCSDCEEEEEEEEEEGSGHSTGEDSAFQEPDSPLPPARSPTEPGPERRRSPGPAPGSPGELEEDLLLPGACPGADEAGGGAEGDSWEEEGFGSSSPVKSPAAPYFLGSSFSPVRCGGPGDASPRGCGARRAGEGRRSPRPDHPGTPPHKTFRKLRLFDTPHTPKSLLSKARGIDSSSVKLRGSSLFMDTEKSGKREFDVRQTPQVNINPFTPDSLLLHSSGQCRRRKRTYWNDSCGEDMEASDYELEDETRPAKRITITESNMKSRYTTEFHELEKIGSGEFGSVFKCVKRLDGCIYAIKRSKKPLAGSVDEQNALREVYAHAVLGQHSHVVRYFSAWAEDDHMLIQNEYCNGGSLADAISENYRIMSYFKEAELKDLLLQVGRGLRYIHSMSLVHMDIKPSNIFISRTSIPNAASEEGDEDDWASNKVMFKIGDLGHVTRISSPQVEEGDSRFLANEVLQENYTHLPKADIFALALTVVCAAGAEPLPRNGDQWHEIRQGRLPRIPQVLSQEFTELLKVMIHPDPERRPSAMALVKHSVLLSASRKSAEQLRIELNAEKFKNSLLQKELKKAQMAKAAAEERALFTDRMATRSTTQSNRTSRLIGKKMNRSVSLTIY
T1 sequence (Q96SW2 whole entry): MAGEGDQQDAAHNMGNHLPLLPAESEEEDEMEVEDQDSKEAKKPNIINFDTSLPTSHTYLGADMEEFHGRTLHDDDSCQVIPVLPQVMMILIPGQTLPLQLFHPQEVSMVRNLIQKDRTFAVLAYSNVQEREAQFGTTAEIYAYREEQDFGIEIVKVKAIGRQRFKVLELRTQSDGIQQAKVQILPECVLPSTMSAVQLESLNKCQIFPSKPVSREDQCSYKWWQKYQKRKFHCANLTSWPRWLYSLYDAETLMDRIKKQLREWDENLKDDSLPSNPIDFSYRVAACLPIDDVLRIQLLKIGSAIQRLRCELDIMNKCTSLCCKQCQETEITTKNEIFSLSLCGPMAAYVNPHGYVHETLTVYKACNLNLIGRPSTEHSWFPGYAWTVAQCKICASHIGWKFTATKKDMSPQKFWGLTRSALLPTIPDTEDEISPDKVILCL
T1 sequence (Q16531 whole entry partner): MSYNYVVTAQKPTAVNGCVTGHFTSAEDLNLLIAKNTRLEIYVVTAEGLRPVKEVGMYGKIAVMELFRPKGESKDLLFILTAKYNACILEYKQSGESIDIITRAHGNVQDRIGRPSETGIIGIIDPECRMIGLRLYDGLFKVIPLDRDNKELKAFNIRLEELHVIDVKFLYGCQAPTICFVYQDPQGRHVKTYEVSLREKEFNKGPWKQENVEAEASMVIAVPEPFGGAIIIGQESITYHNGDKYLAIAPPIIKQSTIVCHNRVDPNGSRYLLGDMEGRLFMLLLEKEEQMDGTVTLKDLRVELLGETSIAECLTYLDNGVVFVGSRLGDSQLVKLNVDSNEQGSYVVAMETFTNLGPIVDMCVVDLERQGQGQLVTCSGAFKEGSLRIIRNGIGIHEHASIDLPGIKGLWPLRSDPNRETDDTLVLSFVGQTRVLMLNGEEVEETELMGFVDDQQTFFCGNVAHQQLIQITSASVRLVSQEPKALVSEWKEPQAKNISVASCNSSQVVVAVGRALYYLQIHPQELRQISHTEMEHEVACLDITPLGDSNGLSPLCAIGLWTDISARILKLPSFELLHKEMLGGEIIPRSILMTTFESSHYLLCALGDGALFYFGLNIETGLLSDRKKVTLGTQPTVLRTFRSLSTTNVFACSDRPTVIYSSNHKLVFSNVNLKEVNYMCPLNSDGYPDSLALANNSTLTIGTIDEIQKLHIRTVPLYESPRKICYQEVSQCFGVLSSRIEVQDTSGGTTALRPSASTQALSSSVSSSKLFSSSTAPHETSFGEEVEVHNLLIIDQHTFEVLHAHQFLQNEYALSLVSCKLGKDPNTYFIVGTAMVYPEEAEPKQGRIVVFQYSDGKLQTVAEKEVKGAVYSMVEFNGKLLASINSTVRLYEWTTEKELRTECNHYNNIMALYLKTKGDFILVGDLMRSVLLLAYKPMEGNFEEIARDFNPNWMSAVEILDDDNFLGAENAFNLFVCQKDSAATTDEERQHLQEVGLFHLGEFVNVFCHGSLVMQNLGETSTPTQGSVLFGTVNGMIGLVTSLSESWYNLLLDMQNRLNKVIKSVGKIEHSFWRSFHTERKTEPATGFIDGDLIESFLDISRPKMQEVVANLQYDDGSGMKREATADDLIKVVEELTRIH

What is called EC50 is the midpoint of the concentration-response curve. In the case of `COC[C@@H]1CN(Cc2cc3ccc(C4CCOCC4)nc3cn2)C[C@H]1Oc1ccc2c(c1)CN([C@H]1CCC(=O)NC1=O)C2=O` [Example 135, (3S)-3-(5-{[(3S,4S)-4-(methoxymethyl)-1-{[2-(oxan-4-yl)-1,7-naphthyridin-6-yl]methyl}pyrrolidin-3-yl]oxy}-1-oxo-2,3-dihydro-1H-isoindol-2-yl)piperidine-2,6-dione], in the experiment on MDA-MB-231 cells, the EC50 is 31 nM and the “MDA-MB 231 Cell Prolif. 120 hr YMin (%)” value was 55.6%. Also, in the experiment on MKN45 cells, the EC50 was determined as 1 nM and the “MKN45 Cell Prolif. 120 hr YMin (%)” value stood at 8.8%. For the same molecule, on WEE1, the DC50 is 1 nM and the “293T-LentiX WEE1-ePL Degradation 4 hr YMin (%)” value stood at 35.7%.

As for `O=C1CC[C@H](N2Cc3cc(O[C@H]4CCN(Cc5cc(F)c6nc(N7C[C@H]8CCO[C@H]8C7)ncc6c5)C4)ccc3C2=O)C(=O)N1` (single isomer, unassigned) [Example 9, (S)-3-(5-(((S)-1-((8-fluoro-2-((3aR*,6aR*)-hexahydro-5H-furo[2,3-c]pyrrol-5-yl)quinazolin-6-yl)methyl)pyrrolidin-3-yl)oxy)-1-oxoisoindolin-2-yl)piperidine-2,6-dione], in the experiment with MDA-MB-231 cells, the EC50 stood at 366 nM and the “MDA-MB 231 Cell Prolif. 120 hr YMin (%)” value was 45.1%. In the experiment on MKN45 cells, the EC50 amounted to 11 nM and the “MKN45 Cell Prolif. 120 hr YMin (%)” value came to 11.7%. In addition, on WEE1, the DC50 was 6 nM and the “293T-LentiX WEE1-ePL Degradation 4 hr YMin (%)” value came to 32.4%.

Take `COC[C@@H]1CN(Cc2cc(F)c3nc(C4CCOC(C)(C)C4)ncc3c2)C[C@H]1Oc1ccc2c(c1)CN([C@H]1CCC(=O)NC1=O)C2=O` (stereo partly drawn) [Example 91, (3S)-3-(5-{[(3S,4S)-1-{[2-(2,2-dimethyloxan-4-yl)-8-fluoroquinazolin-6-yl]methyl}-4-(methoxymethyl)pyrrolidin-3-yl]oxy}-1-oxo-2,3-dihydro-1H-isoindol-2-yl)piperidine-2,6-dione]: in the experiment with MDA-MB-231 cells, the EC50 is 105 nM and the “MDA-MB 231 Cell Prolif. 120 hr YMin (%)” value was determined as 9.6%. Moreover, in the experiment with MKN45 cells, the EC50 was 2 nM and the “MKN45 Cell Prolif. 120 hr YMin (%)” value was found to be 10.5%. Further, at WEE1, the DC50 was determined as 4 nM and the “293T-LentiX WEE1-ePL Degradation 4 hr YMin (%)” value is 27.1%.

As to `COC[C@@H]1CN(Cc2cc(F)c3nc(C4CCCOC4)ccc3c2)C[C@H]1Oc1ccc2c(c1)CN([C@H]1CCC(=O)NC1=O)C2=O` (relative stereo) [Example 70, rel-(3S)-3-(5-{[(3S,4S)-1-{[8-fluoro-2-(oxan-3-yl)quinolin-6-yl]methyl}-4-(methoxymethyl)pyrrolidin-3-yl]oxy}-1-oxo-2,3-dihydro-1H-isoindol-2-yl)piperidine-2,6-dione], in the experiment with MDA-MB-231 cells, the EC50 worked out at 18 nM and the “MDA-MB 231 Cell Prolif. 120 hr YMin (%)” value was found to be 26.1%. Further, in the experiment with MKN45 cells, the EC50 amounted to 1 nM and the “MKN45 Cell Prolif. 120 hr YMin (%)” value was found to be 11.9%. In addition, at WEE1, the DC50 stood at 1 nM and the “293T-LentiX WEE1-ePL Degradation 4 hr YMin (%)” value is 28.9%.

As to `COC[C@@H]1CN(Cc2ccc3nc(N4CCN(C(C)=O)C5(COC5)C4)ccc3c2)C[C@H]1Oc1ccc2c(c1)CN([C@H]1CCC(=O)NC1=O)C2=O` [Example 90, (3S)-3-(5-{[(3S,4S)-1-[(2-{5-acetyl-2-oxa-5,8-diazaspiro[3.5]nonan-8-yl}quinolin-6-yl)methyl]-4-(methoxymethyl)pyrrolidin-3-yl]oxy}-1-oxo-2,3-dihydro-1H-isoindol-2-yl)piperidine-2,6-dione], in the experiment with MDA-MB-231 cells, the EC50 came to 42 nM and the “MDA-MB 231 Cell Prolif. 120 hr YMin (%)” value is on record as 27.2%. Further, in the experiment with MKN45 cells, the EC50 was found to be 2 nM and the “MKN45 Cell Prolif. 120 hr YMin (%)” value is listed as 6.4%. Further, on WEE1, the DC50 stood at 1 nM and the “293T-LentiX WEE1-ePL Degradation 4 hr YMin (%)” value was 21.0%.

Turning to `COC[C@@H]1CN(Cc2cc(F)c3nc(C(C)(C)O)ccc3c2)C[C@H]1Oc1ccc2c(c1)CN([C@H]1CCC(=O)NC1=O)C2=O` [Example 32, (3S)-3-(5-{[(3S,4S)-1-{[8-fluoro-2-(2-hydroxypropan-2-yl)quinolin-6-yl]methyl}-4-(methoxymethyl)pyrrolidin-3-yl]oxy}-1-oxo-2,3-dihydro-1H-isoindol-2-yl)piperidine-2,6-dione], in the experiment on MDA-MB-231 cells, the EC50 was determined as 67 nM and the “MDA-MB 231 Cell Prolif. 120 hr YMin (%)” value was 46.8%. Moreover, in the experiment on MKN45 cells, the EC50 came to 2 nM and the “MKN45 Cell Prolif. 120 hr YMin (%)” value is reported as 11.2%. Moreover, at WEE1, the DC50 was found to be 1 nM and the “293T-LentiX WEE1-ePL Degradation 4 hr YMin (%)” value is reported as 33.4%.

With `COC[C@@H]1CN(Cc2cc(F)c3nc(N4CCN(C(C)=O)C5(CC5)C4)ccc3c2)C[C@H]1Oc1ccc2c(c1)CN([C@H]1CCC(=O)NC1=O)C2=O` [Example 92, (3S)-3-(5-{[(3S,4S)-1-[(2-{4-acetyl-4,7-diazaspiro[2.5]octan-7-yl}-8-fluoroquinolin-6-yl)methyl]-4-(methoxymethyl)pyrrolidin-3-yl]oxy}-1-oxo-2,3-dihydro-1H-isoindol-2-yl)piperidine-2,6-dione], in the experiment on MDA-MB-231 cells, the EC50 was 14 nM and the “MDA-MB 231 Cell Prolif. 120 hr YMin (%)” value is listed as 21.4%. Besides, in the experiment on MKN45 cells, the EC50 stood at 1 nM and the “MKN45 Cell Prolif. 120 hr YMin (%)” value is 10.9%. At WEE1, the DC50 turned out to be 1 nM and the “293T-LentiX WEE1-ePL Degradation 4 hr YMin (%)” value was 28.7%.

As for `COC[C@@H]1CN(Cc2ccc3nc(N4C[C@@H]5CCO[C@@H]5C4)ncc3c2)C[C@H]1Oc1ccc2c(c1)CN([C@H]1CCC(=O)NC1=O)C2=O` (single isomer, unassigned) [Example 18, (S)-3-(5-(((3S,4S)-1-((2-((3aS*,6aS*)-hexahydro-5H-furo[2,3-c]pyrrol-5-yl)quinazolin-6-yl)methyl)-4-(methoxymethyl)pyrrolidin-3-yl)oxy)-1-oxoisoindolin-2-yl)piperidine-2,6-dione], in the experiment on MDA-MB-231 cells, the EC50 amounted to 73 nM and the “MDA-MB 231 Cell Prolif. 120 hr YMin (%)” value was 28.4%. In addition, in the experiment with MKN45 cells, the EC50 is 7 nM and the “MKN45 Cell Prolif. 120 hr YMin (%)” value is 10.1%. Besides, at WEE1, the DC50 was 3 nM and the “293T-LentiX WEE1-ePL Degradation 4 hr YMin (%)” value turned out to be 29.8%.

On to `COC[C@@H]1CN(Cc2cc(F)c3nc(N4C[C@H]5CCO[C@H]5C4)ncc3c2)C[C@H]1Oc1ccc2c(c1)CN([C@H]1CCC(=O)NC1=O)C2=O` (single isomer, unassigned) [Example 10, (S)-3-(5-(((3S,4S)-1-((8-fluoro-2-((3aR*,6aR*)-hexahydro-5H-furo[2,3-c]pyrrol-5-yl)quinazolin-6-yl)methyl)-4-(methoxymethyl)pyrrolidin-3-yl)oxy)-1-oxoisoindolin-2-yl)piperidine-2,6-dione], for which, in the experiment with MDA-MB-231 cells, the EC50 worked out at 70 nM and the “MDA-MB 231 Cell Prolif. 120 hr YMin (%)” value came to 24.6%. In the experiment with MKN45 cells, the EC50 is 2 nM and the “MKN45 Cell Prolif. 120 hr YMin (%)” value is recorded as 10.6%. Moreover, at WEE1, the DC50 amounted to 2 nM and the “293T-LentiX WEE1-ePL Degradation 4 hr YMin (%)” value is given as 27.8%.

With `O=C1CCC(N2C(=O)c3ccc(O[C@H]4CCN(Cc5cc(F)c6nc(C7CCOCC7)ccc6c5)C4)cc3C2=O)C(=O)N1` (single isomer, unassigned) [Example 11, 2-((S*)-2,6-dioxopiperidin-3-yl)-5-(((S)-1-((8-fluoro-2-(tetrahydro-2H-pyran-4-yl)quinolin-6-yl)methyl)pyrrolidin-3-yl)oxy)isoindoline-1,3-dione], in the experiment on MDA-MB-231 cells, the EC50 is 525 nM and the “MDA-MB 231 Cell Prolif. 120 hr YMin (%)” value was 53.2%. Also, in the experiment with MKN45 cells, the EC50 was found to be 33 nM and the “MKN45 Cell Prolif. 120 hr YMin (%)” value worked out at 12.1%. In addition, on WEE1, the DC50 worked out at 4 nM and the “293T-LentiX WEE1-ePL Degradation 4 hr YMin (%)” value is given as 30.4%.

For `COC[C@@H]1CN(Cc2cc(F)c3nc(C4CN(C(C)=O)C4)ncc3c2)C[C@H]1Oc1ccc2c(c1)CN([C@H]1CCC(=O)NC1=O)C2=O` [Example 45, (3S)-3-(5-{[(3S,4S)-1-{[2-(1-acetylazetidin-3-yl)-8-fluoroquinazolin-6-yl]methyl}-4-(methoxymethyl)pyrrolidin-3-yl]oxy}-1-oxo-2,3-dihydro-1H-isoindol-2-yl)piperidine-2,6-dione], in the experiment on MDA-MB-231 cells, the concentration for a half-maximal effect (EC50) turned out to be 278 nM and the “MDA-MB 231 Cell Prolif. 120 hr YMin (%)” value was determined as 52.6%. Also, in the experiment on MKN45 cells, the EC50 is 35 nM and the “MKN45 Cell Prolif. 120 hr YMin (%)” value is 13.4%. For the same molecule, at WEE1, the DC50 was 53 nM and the “293T-LentiX WEE1-ePL Degradation 4 hr YMin (%)” value was 31.5%.

As for `COC[C@@H]1CN(Cc2cc(F)c3nc(C4CCCO4)ncc3c2)C[C@H]1Oc1ccc2c(c1)CN([C@H]1CCC(=O)NC1=O)C2=O` (mixture of isomers) [Example 76, rel-(3S)-3-(5-{[(3S,4S)-1-{[8-fluoro-2-(oxolan-2-yl)quinazolin-6-yl]methyl}-4-(methoxymethyl)pyrrolidin-3-yl]oxy}-1-oxo-2,3-dihydro-1H-isoindol-2-yl)piperidine-2,6-dione], in the experiment on MDA-MB-231 cells, the EC50 came to 99 nM and the “MDA-MB 231 Cell Prolif. 120 hr YMin (%)” value was 17.9%. Also, in the experiment with MKN45 cells, the EC50 amounted to 11 nM and the “MKN45 Cell Prolif. 120 hr YMin (%)” value is recorded as 9.4%. Further, on WEE1, the DC50 worked out at 41 nM and the “293T-LentiX WEE1-ePL Degradation 4 hr YMin (%)” value was 25.5%.

These data come from US20250197374A1, “WEE1 DEGRADING COMPOUNDS AND USES THEREOF” (BRISTOL-MYERS SQUIBB COMPANY, priority 2023, published 2025).
